The record followed here is ChEMBL document CHEMBL1201862, “PubChem BioAssay data set” (2004).

Molecules are shown by their SMILES. Calls of active or inactive are those of the source. Where only a bound is given, the exact number is not on record here.

Experiment [1] is described as follows: HeLa 4N DNA content increase, dose response, cell-based, IC50 (AID 1117351). The experiment is classed as functional.
Experiment [2] can be described thus: CellTiter-Glo luminescent dose response of DLD-1 viability loss (AID 1117352). The experiment is classed as functional.
Experiment [3] in a line: cytotoxicity toward HCT116 cells – cell-based, CellTiter-Glo luminescence, IC50, dose response (AID 1117332). It is filed as functional. Particulars: HCT-116. For orientation: Cellular ATP, detected with luciferase, serves as a proxy for viable cell number.
Experiment [4] can be described thus: HCT116 cell viability decrease, GSK3B pretreatment – CellTiter-Glo, IC50, dose response (AID 1117339). It is filed as functional. Particulars: HCT-116.
Experiment [5] in a line: HeLa 2N DNA content increase, dose response, cell-based, IC50 (AID 1117349). The experiment is classed as functional.
The nature of experiment [6]: SNU-C1 cell viability reduction, dose response, CellTiter-Glo luminescence (AID 1117323). It is filed as functional, cell-based.
The nature of experiment [7]: cytotoxicity toward HT-29 cells – cell-based, CellTiter-Glo luminescence, IC50, dose response (AID 1117330). The experiment is classed as functional.
Experiment [8] is described as follows: P. falciparum ATP4 D1247Y mutant growth inhibitors, dose response, NITD609-resistant line, SYBR Green, dry powder (AID 1159571).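 Also: parasites synchronized at ring stage by sorbitol before testing.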 It is filed as functional, cell-based.
Experiment [9] can be described thus: P. falciparum Dd2 growth inhibitors, dose response, SYBR Green, cherry-picked samples (AID 1159567). The experiment is classed as functional, cell-based.
Experiment [10] is described as follows: P. falciparum Dd2 growth inhibitors, dose response, SYBR Green, dry powder samples (AID 1159566).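 Also: potency for growth inhibition with lower SYBR green DNA signal.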 The experiment is classed as functional, cell-based.
The nature of experiment [11]: P. falciparum 3D7-ScDHODH growth inhibitors, dose response, SYBR Green, dry powder samples (AID 1159570).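 Also: parasite growth measured after 72 hours of compound exposure.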 It is filed as functional, cell-based.
A short description of experiment [12]: HepG2 cell cytotoxicity, dose response, cytotoxicity control, plate reader, dry powder samples (AID 1159569).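 Also: inhibitor potency with signal falling toward the positive control level.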 It is filed as functional, cell-based.
The nature of experiment [13]: Plasmodium falciparum Dd2 Sybr green parasite growth Measured in Cell-Based and Microorganism Combination System Using Plate Reader - 2153-01_Inhibitor_Dose_DryPowder_Activity_Set3. It is filed as functional.
A short description of experiment [14]: HepG2 cell cytotoxicity, dose response, cytotoxicity control, cherry-picked samples (AID 1159577). The experiment is classed as functional, cell-based.
The nature of experiment [15]: MITF Orthogonal Assay: MALME3 CTG Assay Measured in Cell-Based System Using Plate Reader - 2084-04_Inhibitor_Dose_DryPowder_Activity_Set6. The experiment is classed as functional. Particulars: MALME-3.
The nature of experiment [16]: MALME3 melanoma cell viability reduction, dose response, orthogonal assay for MITF inhibitor project, CellTiter-Glo luminescence, dry powder, set 5 (AID 651584). The experiment is classed as functional, cell-based. Particulars: MALME-3.
Experiment [17] can be described thus: MITF Orthogonal Assay: SK-MEL-5 CTG Assay Measured in Cell-Based System Using Plate Reader - 2084-02_Inhibitor_Dose_DryPowder_Activity_Set5. It is filed as functional.
A short description of experiment [18]: MITF Measured in Cell-Based System Using Plate Reader - 2084-01_Inhibitor_Dose_DryPowder_Activity_Set6. The experiment is classed as functional.
Experiment [19] in a line: MITF Measured in Cell-Based System Using Plate Reader - 2084-01_Inhibitor_Dose_DryPowder_Activity_Set7. The experiment is classed as functional.
Experiment [20] can be described thus: A375 melanoma cell cytotoxicity, dose response, counter-screen for MITF inhibitor project, CellTiter-Glo luminescence, dry powder, set 7 (AID 624490). Particulars: A-375. It is filed as functional, cell-based.
Experiment [21] in a line: SK-MEL-5 parental line viability, dose response, MITF inhibitor project, cell-based, CellTiter-Glo, dry powder, set 6 (AID 624429). The experiment is classed as functional.
Experiment [22] can be described thus: TRPM1 promoter luciferase reporter signal decrease, dose response, MITF inhibitor project, cell-based, SK-MEL-5, dry powder, set 9 (AID 651588). It is filed as functional. (In general: Reporter assays use an easily measured gene product as a stand-in for the process of interest.)
The nature of experiment [23]: cytotoxicity in primary human melanocytes, dose response, cytotoxicity control, cell-based, plate reader, dry powder (AID 651920). The experiment is classed as functional.
The nature of experiment [24]: SK-MEL-5 parental cell viability reduction, dose response, orthogonal assay for MITF inhibitor project, CellTiter-Glo luminescence, dry powder, set 8 (AID 651586). The experiment is classed as functional, cell-based.
The nature of experiment [25]: A375 melanoma cell viability loss, dose response, counter-screen for MITF inhibitor project, CellTiter-Glo luminescence, dry powder, set 4 (AID 624364).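 Also: A375 melanoma cells are MITF independent so this is a counter screen.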 Particulars: A-375. It is filed as functional, cell-based. In general terms: The purpose of a counterscreen is to sort out artefacts and off-target activity.
A further experiment deals with T1, Streptokinase A (Streptococcus pyogenes serotype M1, UniProt P10520).
T1 sequence (P10520 whole entry): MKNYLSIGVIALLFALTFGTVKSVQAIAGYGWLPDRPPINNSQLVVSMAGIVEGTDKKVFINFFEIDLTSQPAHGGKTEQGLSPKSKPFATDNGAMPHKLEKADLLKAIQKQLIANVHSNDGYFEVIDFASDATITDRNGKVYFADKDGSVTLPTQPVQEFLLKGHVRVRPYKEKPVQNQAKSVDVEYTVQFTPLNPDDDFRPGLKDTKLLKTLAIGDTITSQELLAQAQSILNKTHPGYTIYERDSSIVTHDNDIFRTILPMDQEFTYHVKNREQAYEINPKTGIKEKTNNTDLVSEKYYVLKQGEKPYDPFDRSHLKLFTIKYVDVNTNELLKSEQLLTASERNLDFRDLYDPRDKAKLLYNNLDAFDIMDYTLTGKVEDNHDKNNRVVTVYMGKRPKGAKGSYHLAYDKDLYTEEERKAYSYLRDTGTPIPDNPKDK
Description: S. pyogenes streptokinase expression inhibitors, potency, dose response, plasminogen activation absorbance, OD405 (AID 1914).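 Also: secreted streptokinase activity via plasminogen activation per viability signal from cell pellet.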 The experiment is classed as functional, Streptococcus pyogenes M1 GAS.

In a further experiment the test system is Streptococcus. The experiment can be described thus: Group A Streptococcus viability loss, dose response, counter-screen for streptokinase expression inhibitor project, luminescence, BacTiterGlo (AID 1915).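 Also: potency for reduction of bacterial viability or growth.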 The experiment is classed as functional, organism-based.
Experiment [26] has as its target T2, Probable nicotinate-nucleotide adenylyltransferase (Staphylococcus aureus (strain N315), UniProt P65502). The experiment is classed as functional, Staphylococcus aureus subsp. aureus N315.
The nature of experiment [27]: half-maximal inhibitory concentration for glucagon-like peptide-1 release, STC-1 cell line, dose-response (AID 1117345). It is filed as functional, cell-based.
For experiment [28], the system named is Streptococcus sp. 'group A'. Description: growth inhibition of control SK(-) GAS strain, dose response, counter-screen for streptokinase expression inhibitor project, luminescence, kanamycin, BacTiterGlo, confirmation (AID 1900). It is filed as functional, organism-based.
In experiment [29] the target is T2, Probable nicotinate-nucleotide adenylyltransferase. It is filed as functional, Staphylococcus aureus subsp. aureus N315. Particulars: read-out: IC50_Mean.
The nature of experiment [30]: Glucagon-like peptide 1 release potency, NCI-H716 cell line, dose-response, half-maximal inhibitory concentration (AID 1117344). The experiment is classed as functional, cell-based.
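For IC50 Mean in this document: confirmatory dose-response retesting of NadD inhibitor hits first found in an ultra-high-throughput screen.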

T2 sequence (P65502 whole entry): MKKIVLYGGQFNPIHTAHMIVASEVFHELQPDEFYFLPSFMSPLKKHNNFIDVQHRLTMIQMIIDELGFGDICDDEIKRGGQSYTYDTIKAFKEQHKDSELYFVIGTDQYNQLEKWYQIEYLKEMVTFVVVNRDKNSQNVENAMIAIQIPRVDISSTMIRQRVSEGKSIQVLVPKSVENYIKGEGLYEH

As for `O=Cc1ccc(O)c(O)c1O`, the IC50 in [1] is > 10 µM (inactive); in [2], > 20 µM (inactive); in experiment [3], > 20 µM (inactive); in experiment [4], 0.141 µM (active); in experiment [5] it was > 10 µM (inactive); in experiment [6] it was > 20 µM (inactive). For the same compound, the IC50 in [7] is > 20 µM (inactive).

As to `CC(C)NC(=O)N1[C@H](C#N)[C@H](c2ccc(-c3ccc(F)cc3)cc2)[C@H]1CO`, the AC50 is 0.469 µM (active) in experiment [8]; 0.858 µM (active) in experiment [9]; 0.442 µM (active) in experiment [10]; 18.2 µM (active) in [11]; 79.5 µM (active) in experiment [12]; 2.93 µM (active) in experiment [13]. Further, the half-maximal activity concentration (AC50) in experiment [14] is 25.6 µM (active).

Regarding `O=C1C=C(NS(=O)(=O)c2ccc(Br)cc2)C(=O)c2ccccc21`, the AC50 was 24.4 µM (active) in [15]; 24.4 µM (active) in [16]; 13.1 µM (active) in experiment [17]; 6.37 µM (active) in [18]; 7.45 µM (active) in experiment [19]; > 70 µM (inactive) in experiment [20]. The half-maximal activity concentration (AC50) in experiment [21] is 11.2 µM (active); in experiment [22], 18.8 µM (active); in [23], 14.5 µM (active); in experiment [24] it was 11.8 µM (active); in experiment [25], > 70 µM (inactive).

`CC(C)(O)c1ccccc1CC[C@@H](SCC1(CC(=O)O)CC1)c1cccc(/C=C/c2ccc3ccc(Cl)cc3n2)c1` [MONTELUKAST SODIUM]: the values for the EC50 (on Streptokinase A; in the experiment on Streptococcus; in experiment [28]) were 3.41 µM (active), 7.96 µM (active) and 1.19 µM (active), respectively. For the same compound, the IC50 in [26] was 6.18 µM (active); in [27] it was > 40 µM (inactive); in experiment [29], 20.6 µM (active); in [30] it was 20.7 µM (inactive).

By AC50 is commonly meant the concentration giving half of the maximal activity seen. For orientation: EC50 means the concentration needed to bring the measured effect to its halfway point.
